Reference: patent publication US20190218226A1, “PRODRUGS OF ANTICANCER AGENTS INDOTECAN AND INDIMITECAN” (Purdue Research Foundation, priority 2016, published 2019)
Where a name gives a salt, the structure may show the parent alone. Read-outs that look alike come from different tables or passages of the source.

Columns and labels:
OVCAR-3 = assay: NCI60 antiproliferative screen, ovarian OVCAR-3; type: cell-based, human; details: OVCAR-3, 48 h, sulforhodamine B, read-out: Cytotoxicity (GI50) Ovarian OVCAR-3
Protocol: (§1) All of the indenoisoquinolines were tested for antiproliferative activity in the National Cancer Institute's 60 cell line screen (NCI60). The cells were incubated with the tested compounds at 100, 10, 1, 0.1, and 0.01 μM concentrations for 48 h before treatment with sulforhodamine B dye. Optical densities were recorded, and their ratios relative to that of the control were plotted as percentage growth against the log 10 of the tested compound concentrations. The concentration that corresponds to 50% growth inhibition (GI50) is calculated by interpolation between the points located above and below the 50% percentage growth. The mean-graph midpoint (MGM) is an estimated average of the GI50 values derived from the NCI collection of 60 human cancer cell lines, where during the MGM calculation, anticancer agents with GI50 values that are outside the testing range of 0.01-100 μM are arbitrarily assigned the values of 0.01 and 100 μM, respectively. […] Also, the GI50 values of many of the substances vs. individual human cancer cell lines are below the lowest concentration used (0.01 μM) in the standard NCI testing protocol. […] For example, the MGM cytotoxicity values of 9, 15-17, and 19 are all very close to each other, but the Top1 inhibitory activities range from +++(+) to 0.

SF-539 = assay: NCI60 antiproliferative screen, CNS SF-539; type: cell-based, human; details: SF-539, 48 h, sulforhodamine B, read-out: Cytotoxicity (GI50) CNS SF-539
Protocol: as §1

HOP-62 = assay: NCI60 antiproliferative screen, lung HOP-62; type: cell-based, human; details: HOP-62, 48 h, sulforhodamine B, read-out: Cytotoxicity (GI50) lung HOP-62
Protocol: as §1

DU-145 = assay: NCI60 antiproliferative screen, prostate DU-145; type: cell-based, human; details: DU-145, 48 h, sulforhodamine B, read-out: Cytotoxicity (GI50) prostate DU-145
Protocol: as §1

HCT-116 = assay: NCI60 antiproliferative screen, colon HCT-116; type: cell-based, human; details: HCT-116, 48 h, sulforhodamine B, read-out: Cytotoxicity (GI50) Colon HCT-116
Protocol: as §1

UACC-62 = assay: NCI60 antiproliferative screen, melanoma UACC-62; type: cell-based, human; details: UACC-62, 48 h, sulforhodamine B, read-out: Cytotoxicity (GI50) melanoma UACC-62
Protocol: as §1

MCF-7 = assay: NCI60 antiproliferative screen, breast MCF-7; type: cell-based, human; details: MCF-7, 48 h, sulforhodamine B, read-out: Cytotoxicity (GI50) breast MCF-7
Protocol: as §1

SN12C = assay: NCI60 antiproliferative screen, renal SN12C; type: cell-based, human; details: 48 h, sulforhodamine B, read-out: Cytotoxicity (GI50) renal SN12C
Protocol: as §1

[1] = tested on: all human cancer cell lines successfully tested (NCI60); assay: NCI60 mean graph midpoint for growth inhibition; type: cell-based; details: for mean GI50 across NCI60 cell lines (MGM): all human cancer cell lines successfully tested, ± standard error, read-out: MGM (mean graph midpoint for growth inhibition); for GI50's against various cell lines (range in words) / cytotoxicity relative to parent compound (in words): NCI60
Protocol: as §1

Human recombinant Top1 = target: T1, Human recombinant Top1 (Homo sapiens, UniProt P11387); assay: Top1-mediated DNA cleavage assay; type: biochemical; set-up: key to Top1 inhibitory activity (level): 0, no detectable activity; +, weak activity; ++, similar activity to compound 4; +++, greater activity than 4; ++++, equipotent with 1; ++(+) would be between ++ and +++; details: for Top 1 Cleavage: graded relative to 1 μM camptothecin; for Top1 inhibitory activity (level): scored relative to compounds 1 and 4
T1 construct: made in house
T1 sequence (P11387 1-765): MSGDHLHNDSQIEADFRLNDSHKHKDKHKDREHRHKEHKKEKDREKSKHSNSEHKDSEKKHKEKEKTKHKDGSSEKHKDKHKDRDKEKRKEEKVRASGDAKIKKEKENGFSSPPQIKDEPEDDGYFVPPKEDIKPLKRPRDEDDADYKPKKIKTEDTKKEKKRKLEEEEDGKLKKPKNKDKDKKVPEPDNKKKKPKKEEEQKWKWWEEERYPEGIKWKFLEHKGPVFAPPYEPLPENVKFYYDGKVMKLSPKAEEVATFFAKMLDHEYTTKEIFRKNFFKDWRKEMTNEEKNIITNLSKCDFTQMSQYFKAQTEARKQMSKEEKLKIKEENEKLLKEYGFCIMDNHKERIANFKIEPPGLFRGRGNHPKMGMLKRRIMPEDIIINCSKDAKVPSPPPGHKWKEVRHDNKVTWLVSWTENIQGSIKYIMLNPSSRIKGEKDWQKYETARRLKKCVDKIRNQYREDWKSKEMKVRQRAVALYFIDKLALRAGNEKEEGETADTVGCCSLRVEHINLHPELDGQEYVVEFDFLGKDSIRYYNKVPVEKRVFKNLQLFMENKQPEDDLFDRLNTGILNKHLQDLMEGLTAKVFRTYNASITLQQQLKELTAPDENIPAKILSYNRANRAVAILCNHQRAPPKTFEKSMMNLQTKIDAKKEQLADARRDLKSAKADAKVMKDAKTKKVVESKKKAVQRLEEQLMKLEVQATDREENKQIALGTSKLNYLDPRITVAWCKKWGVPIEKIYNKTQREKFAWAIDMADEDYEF
Protocol: All of the new indenoisoquinoline derivatives were tested in Top1-mediated DNA cleavage assays. For this purpose, a ^32P 3′-end labeled 117-bp DNA fragment was incubated with Top1 at four concentrations of a tested compound. The DNA fragments were separated on 20% PAGE denaturing gels. The Top1 inhibitory activities were assigned on the basis of the visual inspection of the number and intensities of the gel bands corresponding to Top1-mediated DNA cleavage fragments and scored relative to the Top1 inhibitory activity of compounds 1 and 4. Results are expressed in semiquantitative fashion: 0, no detectable activity; +, weak activity; ++, similar activity to compound 4; +++, greater activity than 4; ++++, equipotent with 1. Ambiguous scores (e.g., between two values) are designated with parentheses (e.g., ++(+) would be between ++ and +++). […] After conversion of the hydroxyl to a dimethylcarbamate, the observed Top1 inhibitory activity increased from ++(+) for compound 8 to +++ for compound 10. Introduction of an acetyl group at the 0-2 position yielded compound 11, which was also a Top1 poison with activity at the ++ level. Subsequently, several hydrophobic substituents were attached to the 0-2 position.
Topoisomerase I-Mediated DNA Cleavage Reactions.
Human recombinant Top1 was purified from baculovirus as previously described (Morrell, A., et al., J. Med. Chem. 2007, 50, 2040-2048). DNA cleavage reactions were prepared as previously reported with the exception of the DNA substrate (Strumberg, D., et al., J. Med. Chem. 1999, 42, 446-457). Briefly, a 117-bp DNA oligonucleotide (Integrated DNA Technologies) encompassing the previously identified Top1 cleavage sites in the 161-bp fragment from pBluescript SK(−) phagemid DNA was employed. This 117-bp oligonucleotide contains a single 5′-cytosine overhang, which was 3′-end-labeled by fill-in reaction with [α-^32P]dGTP in React 2 buffer (50 mM Tris-HCl, pH 8.0, […], 50 mM NaCl) with 0.5 unit of DNA polymerase I (Klenow fragment, New England BioLabs). Unincorporated [^32P]dGTP was removed using mini Quick Spin DNA columns (Roche, Indianapolis, Ind.), and the eluate containing the 3′-end-labeled DNA substrate was collected. Approximately 2 nM radiolabeled DNA substrate was incubated with recombinant Top1 in 20 μL of reaction buffer [10 mM Tris-HCl (pH 7.5), 50 mM KCl, 5 mM MgCl2, 0.1 mM EDTA, and 15 μg/mL BSA] at 25° C. for 20 min in the presence of various concentrations of compounds. The reactions were terminated by adding SDS (0.5% final concentration) followed by the addition of two volumes of loading dye (80% formamide, 10 mM sodium hydroxide, 1 mM sodium EDTA, 0.1% xylene cyanol, and 0.1% bromophenol blue). Aliquots of each reaction mixture were subjected to 20% denaturing PAGE. Gels were dried and visualized by using a phosphoimager and ImageQuant software (Molecular Dynamics). For simplicity, cleavage sites were numbered as previously described in the 161-bp fragment.

Row | Compound | Top 1 Cleavage (Human recombinant Top1) | Top1 inhibitory activity (level) (Human recombinant Top1) | GI50 (OVCAR-3; Homo sapiens) [nM] | GI50 (SF-539; Homo sapiens) [nM] | GI50 (HOP-62; Homo sapiens) [nM] | GI50 (DU-145; Homo sapiens) [nM] | GI50 (HCT-116; Homo sapiens) [nM] | GI50 (UACC-62; Homo sapiens) [nM] | GI50 (MCF-7; Homo sapiens, MCF7) [nM] | GI50 (SN12C; Homo sapiens) [nM] | mean GI50 across NCI60 cell lines (MGM) [1] [nM] | GI50 (OVCAR-3) [nM] | GI50 (SF-539) [nM] | GI50 (HOP-62) [nM] | GI50 (DU-145) [nM] | GI50 (HCT-116) [nM] | GI50 (UACC-62) [nM] | GI50 (MCF-7) [nM] | GI50 (SN12C) [nM] | cytotoxicity relative to parent compound (in words) [1] | further results
1 | COc1cc2c3c(n(CCCN4CCOCC4)c(=O)c2cc1O)-c1cc2c(cc1C3=O)OCO2 [Compound 9] | – | – | 30 | < 10 | 10 | < 10 | 20 | < 10 | < 10 | < 10 | 76 ± 28 | – | – | – | – | – | – | – | – | – | –
2 | COc1cc2c(=O)n(CCCN3CCOCC3)c3c(c2cc1O)C(=O)c1cc2c(cc1-3)OCO2 [Compound 8] | – | ++(+) | 871 | 335 | 257 | 257 | 279 | 282 | 144 | 195 | 412 | – | – | – | – | – | – | – | – | – | –
3 | COc1cc2c3c(n(CCCN4CCOCC4)c(=O)c2cc1OS(=O)(=O)O)-c1cc2c(cc1C3=O)OCO2 [Compound 20, 2-Methoxy-6-(3-morpholinopropyl)-5,12-dioxo-6,12-dihydro-5H-[1,3]dioxolo[4′,5′:5,6]indeno[1,2-c]isoquinolin-3-yl Hydrogen Sulfate] | ++ (++, between 50 and 75% activity) | – | – | – | – | – | – | – | – | – | 912 | 1120 | 263 | 389 | 417 | 389 | 263 | 209 | 355 | – | –

More lines, main results first:

Row | Top 1 Cleavage (Human recombinant Top1) | Top1 inhibitory activity (level) (Human recombinant Top1) | Compound | GI50 (OVCAR-3; Homo sapiens) [nM] | GI50 (SF-539; Homo sapiens) [nM] | GI50 (HOP-62; Homo sapiens) [nM] | GI50 (DU-145; Homo sapiens) [nM] | GI50 (HCT-116; Homo sapiens) [nM] | GI50 (UACC-62; Homo sapiens) [nM] | GI50 (MCF-7; Homo sapiens, MCF7) [nM] | GI50 (SN12C; Homo sapiens) [nM] | mean GI50 across NCI60 cell lines (MGM) [1] [nM] | GI50 (OVCAR-3) [nM] | GI50 (SF-539) [nM] | GI50 (HOP-62) [nM] | GI50 (DU-145) [nM] | GI50 (HCT-116) [nM] | GI50 (UACC-62) [nM] | GI50 (MCF-7) [nM] | GI50 (SN12C) [nM] | cytotoxicity relative to parent compound (in words) [1] | further results
4 | + (+, between 20 and 50% activities) | – | COc1cc2c3c(n(CCCN4CCOCC4)c(=O)c2cc1OC(=O)c1ccccc1)-c1cc2c(cc1C3=O)OCO2 [Compound 18, 2-Methoxy-6-(3-morpholinopropyl)-5,12-dioxo-6,12-dihydro-5H-[1,3]dioxolo[4′,5′:5,6]indeno[1,2-c]isoquinolin-3-yl Benzoate] | – | – | – | – | – | – | – | – | 3190 ± 622 | 30900 | 135 | 2140 | 724 | 5890 | 59 | 15 | 195 | significantly less cytotoxic than their respective parent compounds | GI50's against various cell lines (range in words) [1]: micromolar range; Top1 inhibitory activity (in words) (Human recombinant Top1): weak Top1 poisons
5 | + (+, between 20 and 50% activities) | + | COc1cc2c(=O)n(CCCN3CCOCC3)c3c(c2cc1OC(=O)c1ccccc1)C(=O)c1cc2c(cc1-3)OCO2 [Compound 13, 3-Methoxy-6-(3-morpholinopropyl)-5,12-dioxo-6,12-dihydro-5H-[1,3]dioxolo[4′,5′:5,6]indeno[1,2-c]isoquinolin-2-yl Benzoate] | – | – | – | – | – | – | – | – | 1500 ± 170 | 4570 | 37 | 79 | 51 | 850 | 96 | 33 | 54 | significantly less cytotoxic than their respective parent compounds | GI50's against various cell lines (range in words) [1]: micromolar range; Top1 inhibitory activity (in words) (Human recombinant Top1): weak Top1 poisons
6 | + (+, between 20 and 50% activities) | + | COC(=O)CCC(=O)Oc1cc2c3c(n(CCCN4CCOCC4)c(=O)c2cc1OC)-c1cc2c(cc1C3=O)OCO2 [Compound 12, 3-Methoxy-6-(3-morpholinopropyl)-5,12-dioxo-6,12-dihydro-5H-[1,3]dioxolo[4′,5′:5,6]indeno[1,2-c]isoquinolin-2-yl Methyl Succinate] | – | – | – | – | – | – | – | – | 49 ± 8 | 66 | < 10 | < 10 | < 10 | 14 | < 10 | < 10 | < 10 | greater than the parent 8 by a factor of almost one order of magnitude | –
